Like-named read-outs stand apart in the source and are kept apart here.
How the values were obtained:
[1] = test system: Key Broadleaf Weed and Crop Species; experiment: Post-Emergent Test II: postemergent herbicidal activity, visual rating after 14 d (Table 7); assay type: in vivo; details: post-emergence, 336 h; for pest or weed control at 35 g/ha: 35 g ai/ha; for pest or weed control at 70 g/ha: 70 g ai/ha; for pest or weed control at 140 g/ha: 140 g ai/ha
Outline: (§1)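 Scoring is visual, 0-100, at 14 d after application, comparing treated with untreated plants. Application: overhead track spray at 187 L/ha onto seedlings at 1-2 true leaves, in surfactant/crop-oil carrier.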

[2] = test system: Key Grass and Sedge Weeds as well as Grass Crops; experiment: Post-Emergent Test II: postemergent herbicidal activity, visual rating after 14 d (Table 8); assay type: in vivo; details: post-emergence, 336 h; for pest or weed control at 35 g/ha: 35 g ai/ha; for pest or weed control at 70 g/ha: 70 g ai/ha; for pest or weed control at 140 g/ha: 140 g ai/ha
Outline: as §1

[3] = lambsquarters (Chenopodium album), read-out: Visual Growth Reduction (%) 14 Days After Application CHEAL
[4] = oilseed rape, canola (Brassica napus), read-out: Visual Growth Reduction (%) 14 Days After Application BRSNN
[5] = redroot pigweed (Amaranthus retroflexus), read-out: Visual Growth Reduction (%) 14 Days After Application AMARE
[6] = sunflower (Helianthus annuus), read-out: Visual Growth Reduction (%) 14 Days After Application HELAN
[7] = velvetleaf (Abutilon theophrasti), read-out: Visual Growth Reduction (%) 14 Days After Application ABUTH
[8] = wild poinsettia (Euphorbia heterophylla), read-out: Visual Growth Reduction (%) 14 Days After Application EPHHL
[9] = barnyardgrass (Echinochloa crus-galli), read-out: Visual Growth Reduction (%) 14 Days After Application ECHCG
[10] = giant foxtail (Setaria faberi), read-out: Visual Growth Reduction (%) 14 Days After Application SETFA
[11] = maize, corn (Zea mays), read-out: Visual Growth Reduction (%) 14 Days After Application ZEAMX
[12] = rice (Oryza sativa), read-out: Visual Growth Reduction (%) 14 Days After Application ORYSA
[13] = wheat, spring (Triticum aestivum), read-out: Visual Growth Reduction (%) 14 Days After Application TRZAS
[14] = yellow nutsedge (Cyperus esculentus), read-out: Visual Growth Reduction (%) 14 Days After Application CYPES

SMILES | pest or weed control at 35 g/ha [1, 3] [%] | pest or weed control at 70 g/ha [1, 3] [%] | pest or weed control at 140 g/ha [1, 3] [%] | pest or weed control at 35 g/ha [1, 4] [%] | pest or weed control at 70 g/ha [1, 4] [%] | pest or weed control at 140 g/ha [1, 4] [%] | pest or weed control at 35 g/ha [1, 5] [%] | pest or weed control at 70 g/ha [1, 5] [%] | pest or weed control at 140 g/ha [1, 5] [%] | pest or weed control at 35 g/ha [1, 6] [%] | pest or weed control at 70 g/ha [1, 6] [%] | pest or weed control at 140 g/ha [1, 6] [%] | pest or weed control at 35 g/ha [1, 7] [%] | pest or weed control at 70 g/ha [1, 7] [%] | pest or weed control at 140 g/ha [1, 7] [%] | pest or weed control at 35 g/ha [1, 8] [%] | pest or weed control at 70 g/ha [1, 8] [%] | pest or weed control at 140 g/ha [1, 8] [%] | pest or weed control at 35 g/ha [2, 9] [%] | pest or weed control at 70 g/ha [2, 9] [%] | further results
COc1cc(-c2nc(C(=O)O)c(Cl)c(N)c2F)cc2c1OCO2 [Compound 15] | 0 to 29 | 45 to 59 | 75 to 84 | 0 to 29 | 0 to 29 | 0 to 29 | 0 to 29 | 0 to 29 | 45 to 59 | 0 to 29 | 0 to 29 | 0 to 29 | 0 to 29 | 0 to 29 | 0 to 29 | 0 to 29 | 0 to 29 | 0 to 29 | 0 to 29 | 0 to 29 | pest or weed control at 140 g/ha [2, 9]: 0 to 29%; pest or weed control at 35 g/ha [2, 10]: 0 to 29%; pest or weed control at 70 g/ha [2, 10]: 0 to 29%; pest or weed control at 140 g/ha [2, 10]: 0 to 29%; pest or weed control at 35 g/ha [2, 11]: 0 to 29%; pest or weed control at 70 g/ha [2, 11]: 0 to 29%; pest or weed control at 140 g/ha [2, 11]: 0 to 29%; pest or weed control at 35 g/ha [2, 12]: 0 to 29%; pest or weed control at 70 g/ha [2, 12]: 0 to 29%; pest or weed control at 140 g/ha [2, 12]: 0 to 29%; pest or weed control at 35 g/ha [2, 13]: 0 to 29%; pest or weed control at 70 g/ha [2, 13]: 0 to 29%; pest or weed control at 140 g/ha [2, 13]: 0 to 29%; pest or weed control at 35 g/ha [2, 14]: 0 to 29%; pest or weed control at 70 g/ha [2, 14]: 0 to 29%; pest or weed control at 140 g/ha [2, 14]: 0 to 29%
COC(=O)c1nc(-c2ccc3c(c2F)OC(F)(F)O3)nc(N)c1Cl [Compound 58] | 95 to 100 | 95 to 100 | 95 to 100 | 0 to 29 | 0 to 29 | 60 to 74 | 0 to 29 | 45 to 59 | 95 to 100 | 75 to 84 | 75 to 84 | 75 to 84 | 0 to 29 | 0 to 29 | 75 to 84 | 95 to 100 | 95 to 100 | 95 to 100 | 75 to 84 | 85 to 94 | pest or weed control at 140 g/ha [2, 9]: 95 to 100%; pest or weed control at 35 g/ha [2, 10]: 30 to 44%; pest or weed control at 70 g/ha [2, 10]: 45 to 59%; pest or weed control at 140 g/ha [2, 10]: 45 to 59%; pest or weed control at 35 g/ha [2, 11]: 45 to 59%; pest or weed control at 70 g/ha [2, 11]: 60 to 74%; pest or weed control at 140 g/ha [2, 11]: 75 to 84%; pest or weed control at 35 g/ha [2, 12]: 0 to 29%; pest or weed control at 70 g/ha [2, 12]: 0 to 29%; pest or weed control at 140 g/ha [2, 12]: 0 to 29%; pest or weed control at 35 g/ha [2, 13]: 0 to 29%; pest or weed control at 70 g/ha [2, 13]: 0 to 29%; pest or weed control at 140 g/ha [2, 13]: 0 to 29%; pest or weed control at 35 g/ha [2, 14]: 60 to 74%; pest or weed control at 70 g/ha [2, 14]: 60 to 74%; pest or weed control at 140 g/ha [2, 14]: 60 to 74%
Nc1c(F)c(-c2cccc3c2OC(F)(F)O3)nc(C(=O)O)c1Cl [Compound 74] | 85 to 94 | 95 to 100 | 95 to 100 | 75 to 84 | 85 to 94 | 95 to 100 | 95 to 100 | 95 to 100 | 95 to 100 | 75 to 84 | 75 to 84 | 85 to 94 | 0 to 29 | 30 to 44 | 45 to 59 | 0 to 29 | 0 to 29 | 0 to 29 | 0 to 29 | 0 to 29 | pest or weed control at 140 g/ha [2, 9]: 0 to 29%; pest or weed control at 35 g/ha [2, 10]: 0 to 29%; pest or weed control at 70 g/ha [2, 10]: 0 to 29%; pest or weed control at 140 g/ha [2, 10]: 0 to 29%; pest or weed control at 35 g/ha [2, 12]: 0 to 29%; pest or weed control at 70 g/ha [2, 12]: 0 to 29%; pest or weed control at 140 g/ha [2, 12]: 0 to 29%; pest or weed control at 35 g/ha [2, 13]: 0 to 29%; pest or weed control at 70 g/ha [2, 13]: 0 to 29%; pest or weed control at 140 g/ha [2, 13]: 0 to 29%; pest or weed control at 35 g/ha [2, 14]: 0 to 29%; pest or weed control at 70 g/ha [2, 14]: 0 to 29%; pest or weed control at 140 g/ha [2, 14]: 0 to 29%

From patent publication US9149038B2, “4-amino-6-(heterocyclic)picolinates and 6-amino-2-(heterocyclic)pyrimidine-4-carboxylates and their use as herbicides” (Dow AgroSciences LLC, priority 2013, dated 2015)
